These are literature values, as cited in patent EP1385541B1, “IMMUNOSTIMULANT COMPOSITIONS COMPRISING AN AMINOALKYL GLUCOSAMINIDE PHOSPHATE AND QS-21” (priority 2000, dated 2001).

The test system of one data set is sheep red blood cells. The note with it: substantially pure QS-21 saponin, as described in U.S. Patent No. 5,057,540.

Where two headings read alike, the source gives them in different places. Some results are limits rather than exact numbers.

For QS-21, the critical micellar concentration by setting is: (in phosphate buffered saline) ~0.02 % (w/v); (in water) “about 0.03 % (w/v)”. Also, in the data set on sheep red blood cells, the “hemolysis of sheep red blood cells at concentrations of” value is not below 25 µg/mL.
